Values joined by “and” are separate entries in the source; they are usually repeats but may differ in a detail not shown here. Equal values may be shown once. Active and inactive are the calls of the source.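 Rule for the calls: active = fitted half-maximal concentration for a cytotoxic signal drop no higher than ten times the top valid dose tested; inconclusive = flat curve between -70 and -30 percent, or an unreliable fit; inactive = flat within 30 percent, signal rise, or potency beyond limit.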
How the values were obtained:
[1] = system: HeLa viability, CellTiter-Glo ATP luminescence, 24 h; assay: HeLa cell cytotoxicity, dose response, cytotoxicity control, 24 h, cherry-picked samples (AID 504726);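 for activity change, negative = cytotoxicity: 0% = DMSO neutral controls and -100% = mitoxantrone positive controls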
[2] = as above; details: HeLa viability, CellTiter-Glo ATP luminescence, 24 h; at 35 µM (top of the series)

Row | SMILES | AC50 [1] | activity change, negative = cytotoxicity [2]
1 | O=C1c2c(O)ccc(O)c2C(=O)c2c(NCCNCCO)ccc(NCCNCCO)c21 | 1360 nM and 4080 nM | –
2 | CCOC(=O)[C@H]1[C@H]2COc3cc(OC)ccc3[C@@H]2N2C(=O)CN(Cc3ccc(OC)cc3)C(=O)[C@@]12C | – | -9.01% (inactive)
3 | NNC(=O)C1C(O)CCC2CN3CCc4c([nH]c5ccccc45)C3CC21 (stereo not drawn) | – | -12.3% (inactive)
4 | O=S(=O)(O)c1cc(Cl)cc(N=Nc2ccc(O)cc2O)c1O | – | -12.1% (inactive)
5 | Nc1ccc2nc3c(=O)n(C4CCCCC4)c(=O)[nH]c3nc2c1 | – | -0.337% (inactive)
6 | Cn1cc(C(=O)c2ccc(Cl)cc2Cl)cc1C(=O)N/N=C(\N)COc1ccccc1 | – | -7.82% (inactive)
7 | S=c1c2c(nc3nc[nH]n13)CCC2 | – | -7.9% (inactive)
8 | Nc1ccc2nc3c(=O)[nH]c(=S)[nH]c3nc2c1 | – | -3.49% (inactive)
9 | COC(=O)c1c(C)oc2ccc(N(C(C)=O)S(=O)(=O)c3ccccc3)cc12 | – | 1.25% (inactive)
10 | COc1ccc(S(=O)(=O)N2CCC(C(=O)N3CCCCC3)CC2)cc1 | – | -17.6% (inactive)
11 | CC(C)C(C(=O)O)N1C(=O)/C(=C/C=C/c2ccco2)SC1=S (stereo not drawn) | – | -14.8% (inactive)
12 | CC(C)CCN1C(=O)c2cccc3c(N)ccc(c23)C1=O | – | -14.7% (inactive)
13 | O=C(c1ccc2c(c1)CCN2S(=O)(=O)c1ccccc1)N1CCN(c2ccc(F)cc2)CC1 | – | -13.2% (inactive)
14 | CCN(C(=O)COC(=O)CNS(=O)(=O)c1ccc(SC)c([N+](=O)[O-])c1)C1CCCCC1 | – | -5.61% (inactive)
15 | O=c1oc2ccccc2nc1/C=C(\O)c1ccc(Br)cc1 | – | -12.7% (inactive)
16 | CN1CC=C2C(C#N)=C(N)C(C#N)(C#N)[C@H](c3ccoc3)[C@H]2C1 | – | 0.209% (inactive)
17 | CCOC(=O)CCCn1c(C)nc(=O)c(-c2ccccc2)c1C | – | 4.75% (inactive)
18 | Nc1cc(N)nc(SCC(=O)N2CCCCC2)n1 | – | 4.42% (inactive)
